The values below come from US8658826B2, “Amino acid derivatives used as pharmaceutical substances” (Dritte Patentportfolio Beteiligungsgesellschaft mgH & Co. KG, priority 2008, dated 2014).

The data set can be described thus: oral bioavailability study with rats: benzamidine plasma levels after oral valbenzamidoxime. Format: in vivo, rat. The settings on record: oral 50 mg/kg. The procedure:
For proving the resorption from the gastrointestinal tract and the subsequent reduction to benzamidine, the valbenamidoxime is orally administered to three rats. The metabolization of the ester into benzamidine in this case takes place in vivo as follows:
The anaesthesia was carried out using xylazine and ketamine. Both were administered by intramuscular injection. The silicone catheters were implanted in the vena jugularis and the arteria carotis. They have locally antithrombotic and anti-inflammatory properties, but are not systemically active. During the surgery, the eyes were protected with a cornea-protective ointment (Oculotect®), and 3-4 ml of Ringer lactate solution was applied subcutaneously for improving the postoperative energy supply. The animals were treated antiphlogistically (Finadyne®, 1 mg/kg of body weight) and antibiotically (Amoxicillin® 15%, 10 mg/kg of body weight) and postoperatively attended and kept warm until they woke up. The day after the surgery, the animals got Nutri Plus®, an energy paste (soy bean oil, molasses, cod-liver oil, meat extract, mineral premixture, vitamin premixture).
Male Wistar rats having an average weight of 200 g served as the test animals. The animals were kept individually in cages. Every second day they got concentrated food. […]
For separating the substances to be analyzed, the following HPLC method was used: […]

In the case of `CC(C)C(N)C(=O)O/N=C(\N)c1ccccc1` (stereo not shown) [valbenzamidoxime], the “resorption of the prodrug after oral administration and metabolization into benzamidine” value is “completely resorbed after oral administration and metabolized into the active form benzamidine”.
